# Test results: patent publication US12435089B2, “3-oxadiazolyl substituted pyrazolo[1,5,a]pyrimidines for ROS1, NTRK, and ALK mediated diseases” (TYK MEDICINES, INC., priority 2019, dated 2025)
# pIC50: −log10 of the molar value. Where two headings read alike, the source gives them in different places.
# Key:
# Ba/F3-LMNA-NTRK1-G595R = test: Inhibition of cell proliferation (CellTiter-Glo), Ba/F3-LMNA-NTRK1-G595R; assay type: cell-based; conditions: 72 hours
# Protocol: (§1) The experiment of inhibiting cell proliferation by compounds was carried out in Hefei Zhongkeprecedo Biomedical Technology Co., Ltd. The Ba/F3 engineered cell line stably transfected with different kinase genes was recovered with RPMI 1640 medium (Biological Industries, Israel)+10% fetal bovine serum (Biological Industries, Israel)+1% double antibody (Penicillin Streptomycin solution, Coring, USA) and cultivated two generations. The logarithmic growth phase cell suspension was taken, and 2000 cells/well were inoculated on 96-well white cell culture plate (Corning 3917, NY, USA) with a volume of 95 μL per well. 5 μL of 20×DMSO solution of the compound to be tested was added into the culture plate containing 95 μL of cell suspension. The blank control group was added with corresponding volume of DMSO, mixed well, and incubated in a 5% CO2 incubator at 37° C. for 72 hours. CellTiter-Glo was used to detect cell viability.
# Ba/F3-CD74-ROS1 = test: Inhibition of cell proliferation (CellTiter-Glo), Ba/F3-CD74-ROS1; assay type: cell-based; conditions: 72 hours
# Protocol: as §1
# Ba/F3-LMNA-NTRK1 = test: Inhibition of cell proliferation (CellTiter-Glo), Ba/F3-LMNA-NTRK1; assay type: cell-based; conditions: 72 hours
# Protocol: as §1
# TRKA = TRKA (Homo sapiens (Human), UniProt P04629); test: Radio-tagged HotSpot kinase assay, TRKA; conditions: for IC50: read-out: TRKA (IC50/nM), 33P-ATP, 120 min, room temperature;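 for all read-outs here: kinase activity measured through incorporation of 33P from labelled ATP into substrate, 120 min at room temperature, relative to a DMSO-only blank control, reported as inhibition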
# Protocol: (§2) Inhibition of protein kinase activity by compounds was carried out on the Radio-tagged HotSpot kinase experimental platform of Reaction Biology Corporation. Fresh reaction solution (20 mM HEPESpH 7.5, 10 mM MgCl2, 1 mM EGTA, 0.02% Brij35, 0.02 mg/ml BSA, 0.1 mM Na3VO4, 2 mM DTT, 1% DMSO) containing corresponding substrates was prepared, cofactor and kinase to be tested were added into the above solution and mixed gently. Echo550 pipetting system was used to add the test compound DMSO solution to each well (the blank control group was added with the corresponding volume of DMSO), then 33P-ATP (with a final specific activity of 0.01 μCi/μL) was added to start the reaction. The reaction solution was incubated at room temperature for 120 minutes.
# Ba/F3-CD74-ROS1-G2032R = test: Inhibition of cell proliferation (CellTiter-Glo), Ba/F3-CD74-ROS1-G2032R; assay type: cell-based; conditions: 72 hours;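 note: Ba/F3 cell line expressing the CD74-ROS1 fusion with G2032R mutation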
# Protocol: as §1
# TRKA (G595R) = TRKA (G595R) (Homo sapiens (Human), UniProt P04629, G595R); test: Radio-tagged HotSpot kinase assay, TRKA (G595R); conditions: for IC50: read-out: TRKA (G595R) (IC50/nM), 33P-ATP, 120 min, room temperature
# Protocol: as §2
# ROS1 = ROS1 (Homo sapiens (Human), UniProt P08922); test: Radio-tagged HotSpot kinase assay, ROS1; conditions: for IC50: read-out: ROS1 (IC50/nM), 33P-ATP, 120 min, room temperature
# Protocol: as §2
# ROS1 (G2032R) = ROS1 (G2032R) (Homo sapiens (Human), UniProt P08922, G2032R); test: Radio-tagged HotSpot kinase assay, ROS1 (G2032R); conditions: for IC50: read-out: ROS1 (G2032R) (IC50/nM), 33P-ATP, 120 min, room temperature
# Protocol: as §2
# TRKB = TRKB (Homo sapiens (Human), UniProt Q16620); test: Radio-tagged HotSpot kinase assay, TRKB; assay type: biochemical; conditions: 33P-ATP, 120 min, room temperature
# Protocol: as §2
# TRKC = TRKC (Homo sapiens (Human), UniProt Q16288); test: Radio-tagged HotSpot kinase assay, TRKC; assay type: biochemical; conditions: 33P-ATP, 120 min, room temperature
# Protocol: as §2
# TRKA (G677C) = TRKA (G677C) (Homo sapiens, UniProt P04629, G667C); test: Radio-tagged HotSpot kinase assay, TRKA (G677C); assay type: biochemical; conditions: 33P-ATP, 120 min, room temperature
# Protocol: as §2
# ALK = ALK (Homo sapiens (Human), UniProt Q9UM73); test: Radio-tagged HotSpot kinase assay, ALK; assay type: biochemical; conditions: 33P-ATP, 120 min, room temperature
# Protocol: as §2
# Chain of TRKA (G677C) (P04629 33-796 G667C limits assumed): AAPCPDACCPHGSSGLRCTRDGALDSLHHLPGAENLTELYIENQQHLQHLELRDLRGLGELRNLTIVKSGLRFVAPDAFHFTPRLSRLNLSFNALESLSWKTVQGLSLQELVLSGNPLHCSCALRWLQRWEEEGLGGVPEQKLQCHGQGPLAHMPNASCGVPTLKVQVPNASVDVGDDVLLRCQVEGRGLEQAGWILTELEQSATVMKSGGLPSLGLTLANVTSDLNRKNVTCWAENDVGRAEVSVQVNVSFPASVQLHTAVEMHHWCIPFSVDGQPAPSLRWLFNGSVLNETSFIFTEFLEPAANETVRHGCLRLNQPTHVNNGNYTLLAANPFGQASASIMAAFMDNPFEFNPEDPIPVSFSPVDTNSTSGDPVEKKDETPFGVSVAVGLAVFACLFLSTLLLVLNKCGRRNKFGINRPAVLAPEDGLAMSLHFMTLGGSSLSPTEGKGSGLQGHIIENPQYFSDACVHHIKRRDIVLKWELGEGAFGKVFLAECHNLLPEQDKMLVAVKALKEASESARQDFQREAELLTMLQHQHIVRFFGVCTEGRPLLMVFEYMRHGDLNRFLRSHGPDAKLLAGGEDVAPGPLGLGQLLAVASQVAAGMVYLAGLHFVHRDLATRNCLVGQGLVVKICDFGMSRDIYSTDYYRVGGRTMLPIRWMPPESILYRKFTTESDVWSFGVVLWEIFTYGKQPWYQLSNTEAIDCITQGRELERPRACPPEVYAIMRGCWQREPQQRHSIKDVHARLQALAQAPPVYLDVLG
# Chain of TRKB (Q16620 32-822): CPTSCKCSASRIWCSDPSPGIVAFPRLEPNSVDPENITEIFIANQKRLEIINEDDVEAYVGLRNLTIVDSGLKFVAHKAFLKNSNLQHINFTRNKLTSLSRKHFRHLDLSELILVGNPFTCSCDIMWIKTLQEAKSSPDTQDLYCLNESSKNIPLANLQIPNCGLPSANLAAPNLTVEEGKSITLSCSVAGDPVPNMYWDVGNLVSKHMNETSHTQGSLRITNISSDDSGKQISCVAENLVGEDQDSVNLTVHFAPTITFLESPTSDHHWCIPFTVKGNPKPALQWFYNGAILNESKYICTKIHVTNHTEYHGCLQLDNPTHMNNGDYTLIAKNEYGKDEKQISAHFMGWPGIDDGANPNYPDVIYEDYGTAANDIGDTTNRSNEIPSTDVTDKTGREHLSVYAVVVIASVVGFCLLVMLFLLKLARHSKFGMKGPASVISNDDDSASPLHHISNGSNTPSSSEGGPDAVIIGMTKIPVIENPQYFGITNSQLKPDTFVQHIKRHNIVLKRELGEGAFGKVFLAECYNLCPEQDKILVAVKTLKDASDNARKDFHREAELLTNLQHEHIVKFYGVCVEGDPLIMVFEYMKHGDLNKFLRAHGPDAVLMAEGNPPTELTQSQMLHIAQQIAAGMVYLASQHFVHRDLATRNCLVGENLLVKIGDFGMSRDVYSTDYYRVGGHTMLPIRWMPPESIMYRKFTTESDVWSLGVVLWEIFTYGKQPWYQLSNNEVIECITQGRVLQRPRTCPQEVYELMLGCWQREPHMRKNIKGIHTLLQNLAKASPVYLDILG
# Chain of TRKA (P04629 33-796): as the sequence (P04629 33-796 G667C limits assumed) above, with C635G counted along it
# Chain of TRKA (G595R) (P04629 33-796 G595R): as the sequence (P04629 33-796 G667C limits assumed) above, with G563R, C635G counted along it
# Chain of TRKC (Q16288 32-839): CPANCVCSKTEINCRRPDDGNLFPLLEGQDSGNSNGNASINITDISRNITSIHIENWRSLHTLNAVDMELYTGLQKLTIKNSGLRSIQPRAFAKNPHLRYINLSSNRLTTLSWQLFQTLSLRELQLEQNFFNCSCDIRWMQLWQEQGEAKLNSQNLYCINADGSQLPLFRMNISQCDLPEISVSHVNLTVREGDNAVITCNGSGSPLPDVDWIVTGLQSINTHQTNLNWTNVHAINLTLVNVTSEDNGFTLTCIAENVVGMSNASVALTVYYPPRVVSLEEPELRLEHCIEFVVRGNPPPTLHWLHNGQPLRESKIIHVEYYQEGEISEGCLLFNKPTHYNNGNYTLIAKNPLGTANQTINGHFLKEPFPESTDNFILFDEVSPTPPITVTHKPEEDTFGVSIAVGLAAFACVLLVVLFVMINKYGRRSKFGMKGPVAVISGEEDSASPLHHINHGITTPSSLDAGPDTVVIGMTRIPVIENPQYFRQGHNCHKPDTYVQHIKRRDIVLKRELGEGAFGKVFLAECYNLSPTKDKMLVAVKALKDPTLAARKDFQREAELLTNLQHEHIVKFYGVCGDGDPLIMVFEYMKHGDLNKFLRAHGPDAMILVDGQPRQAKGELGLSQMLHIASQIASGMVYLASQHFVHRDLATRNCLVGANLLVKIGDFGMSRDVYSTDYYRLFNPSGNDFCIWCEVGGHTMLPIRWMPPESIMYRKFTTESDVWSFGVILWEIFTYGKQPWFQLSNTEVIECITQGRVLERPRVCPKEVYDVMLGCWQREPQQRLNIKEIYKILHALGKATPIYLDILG
# Chain of ROS1 (G2032R) (P08922 28-2347 G2032R): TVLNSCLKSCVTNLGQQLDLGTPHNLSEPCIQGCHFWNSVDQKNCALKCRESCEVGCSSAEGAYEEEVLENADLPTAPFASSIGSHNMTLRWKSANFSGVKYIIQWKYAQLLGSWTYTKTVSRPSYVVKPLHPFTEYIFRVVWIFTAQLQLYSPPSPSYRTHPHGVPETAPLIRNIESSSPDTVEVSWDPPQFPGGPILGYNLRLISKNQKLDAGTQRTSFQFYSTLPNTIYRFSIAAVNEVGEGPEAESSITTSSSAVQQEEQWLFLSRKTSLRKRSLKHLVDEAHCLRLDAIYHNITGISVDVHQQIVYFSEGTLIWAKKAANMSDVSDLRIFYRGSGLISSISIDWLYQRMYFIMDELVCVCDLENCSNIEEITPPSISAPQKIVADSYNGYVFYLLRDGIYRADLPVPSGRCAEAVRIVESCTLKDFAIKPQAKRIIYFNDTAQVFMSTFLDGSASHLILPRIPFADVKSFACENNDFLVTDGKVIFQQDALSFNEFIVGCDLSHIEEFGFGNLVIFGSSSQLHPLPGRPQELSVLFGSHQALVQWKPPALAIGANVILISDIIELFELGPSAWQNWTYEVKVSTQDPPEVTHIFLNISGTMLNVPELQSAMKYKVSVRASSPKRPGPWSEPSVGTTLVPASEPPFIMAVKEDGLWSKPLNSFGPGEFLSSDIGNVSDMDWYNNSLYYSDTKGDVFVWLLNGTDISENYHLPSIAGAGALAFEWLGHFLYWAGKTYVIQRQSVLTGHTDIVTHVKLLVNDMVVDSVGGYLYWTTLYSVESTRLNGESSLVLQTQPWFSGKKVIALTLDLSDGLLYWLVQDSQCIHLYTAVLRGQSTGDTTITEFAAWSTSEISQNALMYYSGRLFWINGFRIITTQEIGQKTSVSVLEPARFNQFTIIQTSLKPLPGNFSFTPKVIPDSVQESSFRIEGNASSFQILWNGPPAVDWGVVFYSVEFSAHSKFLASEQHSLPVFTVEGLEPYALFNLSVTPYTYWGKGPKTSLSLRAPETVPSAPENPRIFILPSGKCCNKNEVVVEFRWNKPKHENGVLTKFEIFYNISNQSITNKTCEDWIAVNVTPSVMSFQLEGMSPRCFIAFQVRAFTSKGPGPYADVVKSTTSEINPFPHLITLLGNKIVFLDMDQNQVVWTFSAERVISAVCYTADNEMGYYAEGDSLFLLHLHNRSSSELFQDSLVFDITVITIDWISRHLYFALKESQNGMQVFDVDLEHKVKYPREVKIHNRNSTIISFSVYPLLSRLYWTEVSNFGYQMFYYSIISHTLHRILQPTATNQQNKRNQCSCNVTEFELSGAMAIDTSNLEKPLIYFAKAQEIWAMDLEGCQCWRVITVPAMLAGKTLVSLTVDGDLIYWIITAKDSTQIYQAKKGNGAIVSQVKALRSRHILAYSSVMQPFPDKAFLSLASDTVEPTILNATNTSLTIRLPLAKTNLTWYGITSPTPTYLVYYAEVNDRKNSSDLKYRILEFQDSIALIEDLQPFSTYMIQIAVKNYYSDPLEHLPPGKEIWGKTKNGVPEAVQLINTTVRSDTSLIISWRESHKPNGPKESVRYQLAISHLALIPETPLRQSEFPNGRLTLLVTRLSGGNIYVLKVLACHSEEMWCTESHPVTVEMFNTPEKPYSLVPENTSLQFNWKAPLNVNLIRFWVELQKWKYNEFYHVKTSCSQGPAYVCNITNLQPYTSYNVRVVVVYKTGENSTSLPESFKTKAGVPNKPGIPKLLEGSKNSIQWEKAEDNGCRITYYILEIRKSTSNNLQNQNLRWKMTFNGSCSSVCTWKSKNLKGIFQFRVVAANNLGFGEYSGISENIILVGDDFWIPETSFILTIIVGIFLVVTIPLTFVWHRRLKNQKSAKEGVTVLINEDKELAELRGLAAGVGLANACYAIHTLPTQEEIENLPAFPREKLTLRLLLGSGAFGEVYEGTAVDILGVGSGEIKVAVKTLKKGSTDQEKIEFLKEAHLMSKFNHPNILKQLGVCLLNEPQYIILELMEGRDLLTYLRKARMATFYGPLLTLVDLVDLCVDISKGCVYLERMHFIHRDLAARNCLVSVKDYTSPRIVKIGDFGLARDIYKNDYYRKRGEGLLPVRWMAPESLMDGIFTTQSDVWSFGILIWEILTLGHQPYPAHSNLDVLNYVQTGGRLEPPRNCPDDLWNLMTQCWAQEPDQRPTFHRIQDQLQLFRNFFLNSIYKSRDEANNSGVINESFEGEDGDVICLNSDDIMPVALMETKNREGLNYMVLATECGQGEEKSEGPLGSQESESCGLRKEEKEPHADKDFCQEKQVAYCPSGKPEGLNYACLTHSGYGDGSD
# Chain of ROS1 (P08922 28-2347): as the sequence (P08922 28-2347 G2032R) above, with R2005G counted along it
SMILES,IC50 (Ba/F3-LMNA-NTRK1-G595R) [nM],IC50 (Ba/F3-CD74-ROS1) [nM],IC50 (Ba/F3-LMNA-NTRK1) [nM],pIC50 (TRKA),IC50 (Ba/F3-CD74-ROS1-G2032R) [nM],further results
COc1cc(F)c(F)cc1[C@@H](C)Nc1ccn2ncc(C3=NOC(C)(C)N3)c2n1 [Example 32],161,52.1,45.8,–,–,–
COc1ccc(F)cc1[C@H](C)Nc1ccn2ncc(C3=NOC(C)(C)N3)c2n1 [Example 41],–,–,–,6.30 to 7.30,–,–
COc1ccc(OC)c([C@@H](C)Nc2ccn3ncc(C4=NOC(C)(C)N4)c3n2)c1 [Example 29],387,–,–,–,–,–
C[C@@H](Nc1ccn2ncc(C3=NOC(C)(C)N3)c2n1)c1cc(F)cnc1OCC(F)(F)F [Example 15],8.6,4.9,3.8,–,34.8,–
C[C@H](Nc1ccn2ncc(C3=NOC(C)(C)N3)c2n1)c1cc(F)ccc1Br [Example 24],–,–,–,–,–,IC50 (TRKA): > 500 nM
Cc1ccc(F)cc1[C@H](C)Nc1ccn2ncc(C3=NOC(C)(C)N3)c2n1 [Example 43],–,–,–,6.30 to 7.30,–,–
CCOCC1(C)NC(c2cnn3ccc(N[C@H](C)c4cc(F)ccc4O)nc23)=NO1 (some centres unmarked) [Example 66],–,–,–,8.30 to 9.30,–,pIC50 (TRKA (G595R)): 8.30 to 9.30; IC50 (ROS1): < 0.5 nM; IC50 (ROS1 (G2032R)): < 0.5 nM; IC50 (TRKB): 0.5 to 5 nM; IC50 (TRKC): < 0.5 nM
COc1ccc(F)cc1[C@@H](C)Nc1ccn2ncc(C3=NOC(C)(c4ccccn4)N3)c2n1 (some centres unmarked) [Example 48],–,–,–,–,–,IC50 (TRKA (G677C)): 50 to 500 nM
C[C@@H](Nc1ccn2ncc(C3=NOC(C)(C)N3)c2n1)c1ccccc1Cl [Example 26],–,–,–,8.30 to 9.30,–,IC50 (ALK): 5 to 50 nM; pIC50 (ROS1): 8.30 to 9.30; IC50 (TRKB): 0.5 to 5 nM; IC50 (TRKC): 0.5 to 5 nM
C[C@@H](Nc1ccn2ncc(C3=NOC(C)(C)N3)c2n1)c1ccc(F)cc1 [Example 25],–,–,–,6.30 to 7.30,–,–
COc1ccc(F)cc1[C@@H](C)Nc1ccn2ncc(C3=NOC4(CCOCC4)N3)c2n1 [Example 46],–,–,–,–,–,IC50 (TRKA (G677C)): 5 to 50 nM
COc1c(F)cc(F)cc1[C@@H](C)Nc1ccn2ncc(C3=NOC(C)(C)N3)c2n1 [Example 30],7,2.2,5.8,–,16.3,–
C[C@@H](Nc1ccn2ncc(C3=NOC(C)(C)N3)c2n1)c1cc(F)cc(F)c1 [Example 27],–,–,–,8.30 to 9.30,–,IC50 (ALK): 5 to 50 nM; pIC50 (ROS1): 8.30 to 9.30; IC50 (TRKB): 0.5 to 5 nM; IC50 (TRKC): 0.5 to 5 nM
COc1ccc(F)cc1[C@@H](C)Oc1ccn2ncc(C3=NOC(C)(C)N3)c2n1 [Example 71],110,32.2,76.9,8.30 to 9.30,185,pIC50 (TRKA (G595R)): 8.30 to 9.30; pIC50 (ROS1): 8.30 to 9.30; pIC50 (ROS1 (G2032R)): 8.30 to 9.30; IC50 (TRKB): 0.5 to 5 nM; IC50 (TRKC): 0.5 to 5 nM
COc1ccc(F)cc1[C@@H](C)Nc1nc2c(C3=NOC(C)(C)N3)cnn2cc1F [Example 20],–,–,–,–,43.6,–
C[C@@H](Nc1ccn2ncc(C3=NOC(C)(C)N3)c2n1)c1cc(F)ccc1C(F)(F)F [Example 33],386,15.7,25.9,–,120,–
C[C@@H](Nc1ccn2ncc(C3=NOC(C)(C)N3)c2n1)c1cc(F)ccc1OC(F)(F)F [Example 17],5.1,2.8,2.3,–,23.5,–
Cc1nc(-c2cnn3ccc(N[C@H](C)c4cc(F)ccc4O)nc23)no1 [Example 67],–,–,–,7.30 to 8.30,–,pIC50 (TRKA (G595R)): 7.30 to 8.30; pIC50 (ROS1): 8.30 to 9.30; pIC50 (ROS1 (G2032R)): 7.30 to 8.30; IC50 (TRKB): 0.5 to 5 nM; IC50 (TRKC): 0.5 to 5 nM

SMILES,IC50 (Ba/F3-LMNA-NTRK1-G595R) [nM],IC50 (Ba/F3-CD74-ROS1) [nM],IC50 (Ba/F3-LMNA-NTRK1) [nM],pIC50 (TRKA),IC50 (Ba/F3-CD74-ROS1-G2032R) [nM],further results
COc1ccc(F)cc1[C@@H](C)Nc1ccn2ncc(C3=NOC(C)(c4ccc(F)cc4)N3)c2n1 (some centres unmarked) [Example 47],–,–,–,–,–,IC50 (TRKA (G677C)): 50 to 500 nM
CCCCC1NC(c2cnn3ccc(N[C@H](C)c4cc(F)ccc4O)nc23)=NO1 (some centres unmarked) [Example 69],–,–,–,–,–,IC50 (TRKA (G595R)): < 0.5 nM; IC50 (ROS1): < 0.5 nM; IC50 (TRKA): < 0.5 nM; IC50 (ROS1 (G2032R)): < 0.5 nM; IC50 (TRKB): < 0.5 nM; IC50 (TRKC): < 0.5 nM
COc1ccc(F)cc1[C@@H](C)Nc1ccn2ncc(C3=NOC4(CCCC4)N3)c2n1 [Example 44],13.9,6.9,14.2,–,59.2,IC50 (TRKA (G677C)): 0.5 to 5 nM
CC(Nc1ccn2ncc(C3=NOC(C)(C)N3)c2n1)c1ccc(F)cc1 (racemic) [Example 25 racemate],–,–,–,6.30 to 7.30,–,–
[2H]C([2H])([2H])Oc1ccc(F)cc1[C@@H](C)Nc1nc2c(C3=NOC(C)(C)N3)cnn2cc1F [Example 6],2.8,6,2,–,43.7,–
COc1ccc(F)cc1[C@@H](C)Nc1ccn2ncc(C3=NOC4(CCCCC4)N3)c2n1 [Example 45],–,–,–,–,–,IC50 (TRKA (G677C)): 5 to 50 nM
C[C@@H](Nc1ccn2ncc(C3=NOC(C)(C)N3)c2n1)c1cc(F)ccc1OCC(F)(F)F [Example 3],3.3,2.8,2.1,–,10.3,–
C[C@@H](Nc1ccn2ncc(C3=NOC(C)(C)N3)c2n1)c1cc(F)cc2ccccc12 [Example 53],30.1,8.4,18.2,–,81.1,–
COC(=O)N1CCC2(CC1)NC(c1cnn3ccc(N[C@H](C)c4cc(F)ccc4OC)nc13)=NO2 [Example 55],25.4,6.6,26.7,8.30 to 9.30,47.9,pIC50 (TRKA (G595R)): 8.30 to 9.30; IC50 (ROS1): < 0.5 nM; IC50 (ROS1 (G2032R)): < 0.5 nM; IC50 (TRKB): < 0.5 nM; IC50 (TRKC): < 0.5 nM
C[C@@H](Nc1ccn2ncc(C3=NOC(C)(C)N3)c2n1)c1cc(F)ccc1O [Example 68],–,–,–,–,–,IC50 (TRKA (G595R)): < 0.5 nM; IC50 (ROS1): < 0.5 nM; IC50 (TRKA): < 0.5 nM; IC50 (ROS1 (G2032R)): < 0.5 nM; IC50 (TRKB): < 0.5 nM; IC50 (TRKC): < 0.5 nM
C[C@@H](Nc1ccn2ncc(C3=NCC(C)(C)N3)c2n1)c1cc(F)ccc1F [Example 65],–,–,–,8.30 to 9.30,–,pIC50 (TRKA (G595R)): 8.30 to 9.30; IC50 (ROS1): < 0.5 nM; IC50 (ROS1 (G2032R)): < 0.5 nM; IC50 (TRKB): 0.5 to 5 nM; IC50 (TRKC): < 0.5 nM
C[C@@H](Nc1ccn2ncc(C3=NOC(C)(C)N3)c2n1)c1cccc(F)c1 [Example 31],3.5,–,–,–,54.4,–
CCCC1(C)NC(c2cnn3ccc(N[C@H](C)c4cc(F)ccc4OC)nc23)=NO1 (some centres unmarked) [Example 19],–,–,–,–,140,–
C[C@H](Nc1ccn2ncc(C3=NOC(C)(C)N3)c2n1)c1cc(F)cc2ccccc12 [Example 54],–,–,–,8.30 to 9.30,–,pIC50 (TRKA (G595R)): 8.30 to 9.30; IC50 (ROS1): < 0.5 nM; IC50 (ROS1 (G2032R)): < 0.5 nM; IC50 (TRKB): 0.5 to 5 nM; IC50 (TRKC): < 0.5 nM
COc1c(F)ccc(F)c1[C@@H](C)Nc1ccn2ncc(C3=NOC(C)(C)N3)c2n1 [Example 2],113,–,–,–,–,–
COc1ccc(F)c(Cl)c1[C@@H](C)Nc1ccn2ncc(C3=NOC(C)(C)N3)c2n1 [Example 1],458,–,–,–,–,–
C[C@@H](Nc1ccn2ncc(C3=NOC(C)(C)N3)c2n1)c1cc(F)cc(F)c1F [Example 13],12.5,5.2,5.1,–,45.9,–
